Measured values taken from patent US9296723B2, “NAMPT inhibitors” (AbbVie Inc., priority 2012, dated 2016).

Key:
NAMPT [1] = target: T1, NAMPT (Homo sapiens, UniProt P43490); test: Time-Resolved Fluorescence Resonance Energy Transfer (TR-FRET) Binding Assay of NAMPT; details: 6.8 nM NAMPT, 200 nM probe, equilibrated 3 hours, no substrates
Outline: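 IC50s come from four-parameter logistic fits of control-normalized Em520/Em495 TR-FRET ratios (Ex 337 nm) against compound concentration. Before reading, enzyme, probe, antibody and compound equilibrated for 3 h at room temperature.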

NAMPT [2] = target: T1, NAMPT; test: TR-FRET Binding Assay of NAMPT with PRPP; details: 2 nM NAMPT, 2 nM probe, 200 µM PRPP and 2.5 mM ATP, equilibrated 16 hours
Outline: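 Substrates present: PRPP at 200 µM and ATP at 2.5 mM, final, alongside 2 nM enzyme, 2 nM tracer and 1 nM terbium anti-His donor in 2% DMSO. A 16-hour equilibration preceded the time-resolved FRET read, allowing compounds to be enzymatically modified.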

PC3 cells = test: NAMPT Cell Proliferation Assay (Cell Titer Glo); format: cell-based; details: Homo sapiens, PC-3, 120 h, incubated 5 days, cell viability
Outline: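 Viability measured by Cell Titer Glo luminescence after 5-day exposure of attached PC3 cells to compound, dosed as 10-fold serial dilutions ([…]) in RPMI/10% FBS at 37 °C and 5% CO2. Percent inhibition fitted to sigmoidal dose-response curves for IC50.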

T1 sequence (P43490 whole entry): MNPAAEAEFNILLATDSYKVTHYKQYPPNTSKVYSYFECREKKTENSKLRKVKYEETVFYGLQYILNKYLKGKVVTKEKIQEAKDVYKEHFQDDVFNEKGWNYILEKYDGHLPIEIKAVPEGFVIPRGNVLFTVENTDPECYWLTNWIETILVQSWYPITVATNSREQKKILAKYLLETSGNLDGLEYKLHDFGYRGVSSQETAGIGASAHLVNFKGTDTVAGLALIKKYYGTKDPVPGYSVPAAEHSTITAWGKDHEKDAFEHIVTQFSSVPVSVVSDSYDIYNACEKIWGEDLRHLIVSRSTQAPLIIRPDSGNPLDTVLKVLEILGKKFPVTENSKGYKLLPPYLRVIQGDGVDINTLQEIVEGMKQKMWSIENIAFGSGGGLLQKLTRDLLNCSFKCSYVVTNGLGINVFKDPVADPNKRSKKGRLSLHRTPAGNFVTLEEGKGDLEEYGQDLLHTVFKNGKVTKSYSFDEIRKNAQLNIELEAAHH

SMILES | IC50 (NAMPT [1]) | IC50 (NAMPT [2]) | IC50 (PC3 cells)
O=C(CN1CCOCC1)N1CC(Oc2ccc(NC(=O)N3CC(c4cccnc4)C3)cc2)C1 [Example 143, N-(4-{[1-(morpholin-4-ylacetyl)azetidin-3-yl]oxy}phenyl)-3-(pyridin-3-yl)azetidine-1-carboxamide] | 136 nM | 0.763 nM | 82.2 nM
O=C(CN1CCCC1)N1CC[C@@H](Oc2ccc(NC(=O)N3CC(c4cccnc4)C3)cc2)C1 [Example 304, 3-(pyridin-3-yl)-N-(4-{[(3R)-1-(pyrrolidin-1-ylacetyl)pyrrolidin-3-yl]oxy}phenyl)azetidine-1-carboxamide] | 594 nM | 0.343 nM | 262 nM
O=C(CC1C[C@@H]2CC[C@H]1C2)N1CC(c2ccc(NC(=O)N3CC(c4cccnc4)C3)cc2)C1 (stereo partly drawn) [Example 200, N-(4-{1-[(1S,4R)-bicyclo[2.2.1]hept-2-ylacetyl]azetidin-3-yl}phenyl)-3-(pyridin-3-yl)azetidine-1-carboxamide] | 36.4 nM | 0.382 nM | 17 nM
O=C(CC1C[C@@H]2CC[C@H]1C2)N1CC(Oc2ccc(NC(=O)N3CC(c4cccnc4)C3)cc2)C1 (stereo partly drawn) [Example 122, N-[4-({1-[(1S,4R)-bicyclo[2.2.1]hept-2-ylacetyl]azetidin-3-yl}oxy)phenyl]-3-(pyridin-3-yl)azetidine-1-carboxamide] | 16.6 nM | 0.588 nM | 8.81 nM
COCC(=O)N1CC(Oc2ccc(NC(=O)N3CC(c4cccnc4)C3)cc2)C1 [Example 120, N-(4-{[1-(methoxyacetyl)azetidin-3-yl]oxy}phenyl)-3-(pyridin-3-yl)azetidine-1-carboxamide] | 145 nM | 0.689 nM | 78 nM
O=C(Nc1ccc(OC2CN(C(=O)C3CC3)C2)cc1)N1CC(c2cccnc2)C1 [Example 140, N-(4-{[1-(cyclopropylcarbonyl)azetidin-3-yl]oxy}phenyl)-3-(pyridin-3-yl)azetidine-1-carboxamide] | 43 nM | 0.181 nM | 26.3 nM
O=C(Nc1ccc(O[C@@H]2CCN(C(=O)C3CCCC3)C2)cc1)N1CC(c2cccnc2)C1 [Example 334, N-(4-{[(3R)-1-(cyclopentylcarbonyl)pyrrolidin-3-yl]oxy}phenyl)-3-(pyridin-3-yl)azetidine-1-carboxamide] | 94.9 nM | 0.449 nM | 32.4 nM
CCC(=O)N1CC(Oc2ccc(NC(=O)N3CC(c4cccnc4)C3)cc2)C1 [Example 130, N-{4-[(1-propanoylazetidin-3-yl)oxy]phenyl}-3-(pyridin-3-yl)azetidine-1-carboxamide] | 84.7 nM | 0.559 nM | 78.7 nM
O=C(Nc1ccc(OC2CN(C(=O)c3ccsc3)C2)cc1)N1CC(c2cccnc2)C1 [Example 146, 3-(pyridin-3-yl)-N-(4-{[1-(thiophen-3-ylcarbonyl)azetidin-3-yl]oxy}phenyl)azetidine-1-carboxamide] | 15.1 nM | 0.27 nM | 9.07 nM
CC(C)(C)OC(=O)N1CCC(c2ccc(NC(=O)N3CC(c4cccnc4F)C3)cc2)CC1 [Example 116, tert-butyl 4-[4-({[3-(2-fluoropyridin-3-yl)azetidin-1-yl]carbonyl}amino)phenyl]piperidine-1-carboxylate] | 26.7 nM | 0.744 nM | 135 nM

The next lines start with the values.

IC50 (NAMPT [1]) | IC50 (NAMPT [2]) | IC50 (PC3 cells) | SMILES
14.4 nM | 0.389 nM | 61.9 nM | O=C(CC1C[C@@H]2CC[C@H]1C2)N1CCC(c2ccc(NC(=O)N3CC(c4cccnc4)C3)cc2)CC1 (stereo partly drawn) [Example 165, N-(4-{1-[(1S,4R)-bicyclo[2.2.1]hept-2-ylacetyl]piperidin-4-yl}phenyl)-3-(pyridin-3-yl)azetidine-1-carboxamide]
8.74 nM | 0.231 nM | 22 nM | CC(C)(C)C(=O)N1CCC(c2ccc(NC(=O)N3CC(c4cccnc4)C3)cc2)CC1 [Example 171, N-{4-[1-(2,2-dimethylpropanoyl)piperidin-4-yl]phenyl}-3-(pyridin-3-yl)azetidine-1-carboxamide]
46.9 nM | 0.279 nM | 60.4 nM | O=C(CCC(F)(F)F)N1CCC(c2ccc(NC(=O)N3CC(c4cccnc4)C3)cc2)C1 (stereo not drawn) [Example 271, 3-(pyridin-3-yl)-N-{4-[1-(4,4,4-trifluorobutanoyl)pyrrolidin-3-yl]phenyl}azetidine-1-carboxamide]
18.3 nM | 0.204 nM | 22.3 nM | O=C(Nc1ccc(C2CCN(C(=O)c3cccs3)C2)cc1)N1CC(c2cccnc2)C1 (stereo not drawn) [Example 284, 3-(pyridin-3-yl)-N-{4-[1-(thiophen-2-ylcarbonyl)pyrrolidin-3-yl]phenyl}azetidine-1-carboxamide]
48.6 nM | 0.473 nM | 73.7 nM | CC(C)CC(=O)N1CC(c2ccc(NC(=O)N3CC(c4cccnc4)C3)cc2)C1 [Example 208, N-{4-[1-(3-methylbutanoyl)azetidin-3-yl]phenyl}-3-(pyridin-3-yl)azetidine-1-carboxamide]
188 nM | 0.389 nM | 95.1 nM | O=C(Nc1ccc(C2CN(C(=O)C3CCOC3)C2)cc1)N1CC(c2cccnc2)C1 (stereo not drawn) [Example 104, 3-(pyridin-3-yl)-N-{4-[1-(tetrahydrofuran-3-ylcarbonyl)azetidin-3-yl]phenyl}azetidine-1-carboxamide]
40.9 nM | 0.464 nM | 20.6 nM | O=C(CC1CCCCC1)N1CC(c2ccc(NC(=O)N3CC(c4cccnc4)C3)cc2)C1 [Example 212, N-{4-[1-(cyclohexylacetyl)azetidin-3-yl]phenyl}-3-(pyridin-3-yl)azetidine-1-carboxamide]
32.5 nM | 0.249 nM | 76.9 nM | O=C(CCC(F)(F)F)N1CCC(c2ccc(NC(=O)N3CC(c4cccnc4)C3)cc2)CC1 [Example 179, 3-(pyridin-3-yl)-N-{4-[1-(4,4,4-trifluorobutanoyl)piperidin-4-yl]phenyl}azetidine-1-carboxamide]
4.19 nM | 0.281 nM | 8.66 nM | O=C(Nc1ccc(C2CCN(C(=O)c3nccs3)CC2)cc1)N1CC(c2cccnc2)C1 [Example 195, 3-(pyridin-3-yl)-N-{4-[1-(1,3-thiazol-2-ylcarbonyl)piperidin-4-yl]phenyl}azetidine-1-carboxamide]
33.7 nM | 0.266 nM | 61.7 nM | Cc1ccc(C(=O)N2CCC(c3ccc(NC(=O)N4CC(c5cccnc5)C4)cc3)C2)s1 (stereo not drawn) [Example 283, N-(4-{1-[(5-methylthiophen-2-yl)carbonyl]pyrrolidin-3-yl}phenyl)-3-(pyridin-3-yl)azetidine-1-carboxamide]
